{
  "source": "PubChem BioAssay AID2060605",
  "about": "(Molecular Pharmacology Branch, DTP, NCI, 2025)",
  "test_system": "947758-054-R-J2-PDC spheroid growth, percent test/control",
  "assay": "Anticancer human tumor 947758-054-R-J2-PDC patient-derived colon adenocarcinoma cell line growth inhibition [CLK]",
  "conditions": "spheroids with HUVEC and MSC; for IC50: curve of first compound; for viability, T/C: stronger effect = lower value",
  "method_in_brief": "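Multi-cell-type spheroids combined patient-derived tumor cells with HUVEC endothelial cells and human mesenchymal stem cells. Paired agents were dosed in half-log steps down from about clinical Cmax, or from 10 microM where Cmax was unknown.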",
  "key": {"[1]": {"conditions": "second compound 0.0316 µM, first compound 0.0316 µM"}, "[2]": {"conditions": "second compound 0.0316 µM, first compound 0.1 µM"}, "[3]": {"conditions": "second compound 0.1 µM, first compound 0.0316 µM"}, "[4]": {"conditions": "second compound 0.1 µM, first compound 0.1 µM"}, "[5]": {"conditions": "second compound 0.316 µM, first compound 0.0316 µM"}, "[6]": {"conditions": "second compound 0.316 µM, first compound 0.1 µM"}, "[7]": {"conditions": "second compound 1 µM, first compound 0.0316 µM"}, "[8]": {"conditions": "second compound 1 µM, first compound 0.1 µM"}, "[9]": {"conditions": "second compound 3.16 µM, first compound 0.0316 µM"}, "[10]": {"conditions": "second compound 3.16 µM, first compound 0.1 µM"}, "[11]": {"conditions": "second compound 10 µM, first compound 0.0316 µM"}, "[12]": {"conditions": "second compound 10 µM, first compound 0.1 µM"}},
  "data": [
    {"compound": "Cn1ncnc1[C@H]1c2n[nH]c(=O)c3cc(F)cc(c23)N[C@@H]1c1ccc(F)cc1", "note": "+ CN1CCN(c2cc(C(=O)Nc3cc4cc(-c5cnn(C)c5)ccc4cn3)ccn2)CC1;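 also: spheroids exposed to compounds for one week before readout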;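 as to viability, T/C: 100% = DMSO vehicle control wells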", "values": [
      {"measurement": "IC50", "setting": "second compound 0.0316 µM", "value": "> 0.1", "unit": "µM"},
      {"measurement": "IC50", "setting": "second compound 0.1 µM", "value": "> 0.1", "unit": "µM"},
      {"measurement": "IC50", "setting": "second compound 0.316 µM", "value": "< 0.000316", "unit": "µM"},
      {"measurement": "IC50", "setting": "second compound 1 µM", "value": "< 0.000316", "unit": "µM"},
      {"measurement": "IC50", "setting": "second compound 3.16 µM", "value": "< 0.000316", "unit": "µM"},
      {"measurement": "IC50", "setting": "second compound 10 µM", "value": "< 0.000316", "unit": "µM"},
      {"measurement": "viability, T/C", "setting": "second compound 0.0316 µM, first compound 0.000316 µM", "value": 141, "unit": "%"},
      {"measurement": "viability, T/C", "setting": "second compound 0.0316 µM, first compound 0.001 µM", "value": 155, "unit": "%"},
      {"measurement": "viability, T/C", "setting": "second compound 0.0316 µM, first compound 0.00316 µM", "value": 157, "unit": "%"},
      {"measurement": "viability, T/C", "setting": "second compound 0.0316 µM, first compound 0.01 µM", "value": 107, "unit": "%"},
      {"measurement": "viability, T/C", "setting": "[1]", "value": 133, "unit": "%"},
      {"measurement": "viability, T/C", "setting": "[2]", "value": 197, "unit": "%"},
      {"measurement": "viability, T/C", "setting": "second compound 0.1 µM, first compound 0.000316 µM", "value": 161, "unit": "%"},
      {"measurement": "viability, T/C", "setting": "second compound 0.1 µM, first compound 0.001 µM", "value": 171, "unit": "%"},
      {"measurement": "viability, T/C", "setting": "second compound 0.1 µM, first compound 0.00316 µM", "value": 149, "unit": "%"},
      {"measurement": "viability, T/C", "setting": "second compound 0.1 µM, first compound 0.01 µM", "value": 134, "unit": "%"},
      {"measurement": "viability, T/C", "setting": "[3]", "value": 181, "unit": "%"},
      {"measurement": "viability, T/C", "setting": "[4]", "value": 145, "unit": "%"},
      {"measurement": "viability, T/C", "setting": "second compound 0.316 µM, first compound 0.000316 µM", "value": 4.7, "unit": "%"},
      {"measurement": "viability, T/C", "setting": "second compound 0.316 µM, first compound 0.001 µM", "value": 6.84, "unit": "%"},
      {"measurement": "viability, T/C", "setting": "second compound 0.316 µM, first compound 0.00316 µM", "value": 5.57, "unit": "%"},
      {"measurement": "viability, T/C", "setting": "second compound 0.316 µM, first compound 0.01 µM", "value": 4.75, "unit": "%"},
      {"measurement": "viability, T/C", "setting": "[5]", "value": 5.66, "unit": "%"},
      {"measurement": "viability, T/C", "setting": "[6]", "value": 4.51, "unit": "%"},
      {"measurement": "viability, T/C", "setting": "second compound 1 µM, first compound 0.000316 µM", "value": 0.15, "unit": "%"},
      {"measurement": "viability, T/C", "setting": "second compound 1 µM, first compound 0.001 µM", "value": 0.15, "unit": "%"},
      {"measurement": "viability, T/C", "setting": "second compound 1 µM, first compound 0.00316 µM", "value": 1.79, "unit": "%"},
      {"measurement": "viability, T/C", "setting": "second compound 1 µM, first compound 0.01 µM", "value": 0.11, "unit": "%"},
      {"measurement": "viability, T/C", "setting": "[7]", "value": 0.18, "unit": "%"},
      {"measurement": "viability, T/C", "setting": "[8]", "value": 1.95, "unit": "%"},
      {"measurement": "viability, T/C", "setting": "second compound 3.16 µM, first compound 0.000316 µM", "value": 0.37, "unit": "%"},
      {"measurement": "viability, T/C", "setting": "second compound 3.16 µM, first compound 0.001 µM", "value": 0.17, "unit": "%"},
      {"measurement": "viability, T/C", "setting": "second compound 3.16 µM, first compound 0.00316 µM", "value": 0.17, "unit": "%"},
      {"measurement": "viability, T/C", "setting": "second compound 3.16 µM, first compound 0.01 µM", "value": 0.13, "unit": "%"},
      {"measurement": "viability, T/C", "setting": "[9]", "value": 0.37, "unit": "%"},
      {"measurement": "viability, T/C", "setting": "[10]", "value": 1.28, "unit": "%"},
      {"measurement": "viability, T/C", "setting": "second compound 10 µM, first compound 0.000316 µM", "value": 0.25, "unit": "%"},
      {"measurement": "viability, T/C", "setting": "second compound 10 µM, first compound 0.001 µM", "value": 2.6, "unit": "%"},
      {"measurement": "viability, T/C", "setting": "second compound 10 µM, first compound 0.00316 µM", "value": 0.52, "unit": "%"},
      {"measurement": "viability, T/C", "setting": "second compound 10 µM, first compound 0.01 µM", "value": 0.26, "unit": "%"},
      {"measurement": "viability, T/C", "setting": "[11]", "value": 0.26, "unit": "%"},
      {"measurement": "viability, T/C", "setting": "[12]", "value": 2.18, "unit": "%"}
    ]},
    {"compound": "Nc1ccn(C2OC(CO)C(O)C2(F)F)c(=O)n1", "note": "(centres undefined) + CN1CCN(c2cc(C(=O)Nc3cc4cc(-c5cnn(C)c5)ccc4cn3)ccn2)CC1", "values": [
      {"measurement": "IC50", "setting": "second compound 0.0316 µM", "value": 0.0331, "unit": "µM"},
      {"measurement": "IC50", "setting": "second compound 0.1 µM", "value": "< 0.0316", "unit": "µM"},
      {"measurement": "IC50", "setting": "second compound 0.316 µM", "value": "< 0.0316", "unit": "µM"},
      {"measurement": "IC50", "setting": "second compound 1 µM", "value": "< 0.0316", "unit": "µM"},
      {"measurement": "IC50", "setting": "second compound 3.16 µM", "value": "< 0.0316", "unit": "µM"},
      {"measurement": "IC50", "setting": "second compound 10 µM", "value": "< 0.0316", "unit": "µM"},
      {"measurement": "viability, T/C", "setting": "[1]", "value": 51.6, "unit": "%"},
      {"measurement": "viability, T/C", "setting": "[2]", "value": 9.51, "unit": "%"},
      {"measurement": "viability, T/C", "setting": "second compound 0.0316 µM, first compound 0.316 µM", "value": 11.7, "unit": "%"},
      {"measurement": "viability, T/C", "setting": "second compound 0.0316 µM, first compound 1 µM", "value": 13.8, "unit": "%"},
      {"measurement": "viability, T/C", "setting": "second compound 0.0316 µM, first compound 3.16 µM", "value": 10.8, "unit": "%"},
      {"measurement": "viability, T/C", "setting": "second compound 0.0316 µM, first compound 10 µM", "value": 6.34, "unit": "%"},
      {"measurement": "viability, T/C", "setting": "[3]", "value": 20.8, "unit": "%"},
      {"measurement": "viability, T/C", "setting": "[4]", "value": 6.62, "unit": "%"},
      {"measurement": "viability, T/C", "setting": "second compound 0.1 µM, first compound 0.316 µM", "value": 10.4, "unit": "%"},
      {"measurement": "viability, T/C", "setting": "second compound 0.1 µM, first compound 1 µM", "value": 10.6, "unit": "%"},
      {"measurement": "viability, T/C", "setting": "second compound 0.1 µM, first compound 3.16 µM", "value": 7.69, "unit": "%"},
      {"measurement": "viability, T/C", "setting": "second compound 0.1 µM, first compound 10 µM", "value": 7.26, "unit": "%"},
      {"measurement": "viability, T/C", "setting": "[5]", "value": 2.49, "unit": "%"},
      {"measurement": "viability, T/C", "setting": "[6]", "value": 1.07, "unit": "%"},
      {"measurement": "viability, T/C", "setting": "second compound 0.316 µM, first compound 0.316 µM", "value": 1.17, "unit": "%"},
      {"measurement": "viability, T/C", "setting": "second compound 0.316 µM, first compound 1 µM", "value": 0.85, "unit": "%"},
      {"measurement": "viability, T/C", "setting": "second compound 0.316 µM, first compound 3.16 µM", "value": 0.53, "unit": "%"},
      {"measurement": "viability, T/C", "setting": "second compound 0.316 µM, first compound 10 µM", "value": 3.53, "unit": "%"},
      {"measurement": "viability, T/C", "setting": "[7]", "value": 0.13, "unit": "%"},
      {"measurement": "viability, T/C", "setting": "[8]", "value": 0.13, "unit": "%"},
      {"measurement": "viability, T/C", "setting": "second compound 1 µM, first compound 0.316 µM", "value": 2.17, "unit": "%"},
      {"measurement": "viability, T/C", "setting": "second compound 1 µM, first compound 1 µM", "value": 0.08, "unit": "%"},
      {"measurement": "viability, T/C", "setting": "second compound 1 µM, first compound 3.16 µM", "value": 0.45, "unit": "%"},
      {"measurement": "viability, T/C", "setting": "second compound 1 µM, first compound 10 µM", "value": 0.11, "unit": "%"},
      {"measurement": "viability, T/C", "setting": "[9]", "value": 1.66, "unit": "%"},
      {"measurement": "viability, T/C", "setting": "[10]", "value": 0.22, "unit": "%"},
      {"measurement": "viability, T/C", "setting": "second compound 3.16 µM, first compound 0.316 µM", "value": 0.38, "unit": "%"},
      {"measurement": "viability, T/C", "setting": "second compound 3.16 µM, first compound 1 µM", "value": 0.21, "unit": "%"},
      {"measurement": "viability, T/C", "setting": "second compound 3.16 µM, first compound 3.16 µM", "value": 0.27, "unit": "%"},
      {"measurement": "viability, T/C", "setting": "second compound 3.16 µM, first compound 10 µM", "value": 0.3, "unit": "%"},
      {"measurement": "viability, T/C", "setting": "[11]", "value": 0.27, "unit": "%"},
      {"measurement": "viability, T/C", "setting": "[12]", "value": 0.28, "unit": "%"},
      {"measurement": "viability, T/C", "setting": "second compound 10 µM, first compound 0.316 µM", "value": 0.31, "unit": "%"},
      {"measurement": "viability, T/C", "setting": "second compound 10 µM, first compound 1 µM", "value": 0.32, "unit": "%"},
      {"measurement": "viability, T/C", "setting": "second compound 10 µM, first compound 3.16 µM", "value": 1.07, "unit": "%"},
      {"measurement": "viability, T/C", "setting": "second compound 10 µM, first compound 10 µM", "value": 0.35, "unit": "%"}
    ]}
  ]
}
